Experimental data reported in patent US20090048283A1, “Salt of an androgen receptor modulator” (priority 2007, published 2009).

Experiments:
[1] = hygroscopicity by symmetric vapor sorption analyzer; format: physicochemical; details: 25° C.
Experimental: A large quantity of Form A (wet cake of N-(3H-imidazo[4,5-B]pyridin-2-ylmethyl)-2-fluoro-4-methyl-3-oxo-4-aza-5-alpha-androst-1-en-17-beta-carboxamide) was generated by dissolving the crystalline free base (Form E) in pH 3—potassium biphthalate and sulfuric acid mixture—for 10 days at RT. The slurry was filtered and washed with copious amount of D.I. water to wash off residual ions. The wet cake (Form A) was analyzed by x-ray and was then vacuum dried at 37° C. for 3 days. Upon drying, a change in x-ray pattern was observed. The dry cake (Form B) was then analyzed by differential scanning calorimetry (DSC) and thermogravimetry (TG). The TG analysis was performed under a nitrogen flow at a heating rate of 10° C./min, and the DSC was performed under nitrogen flow at a heating rate of 10° C./min in a covered pan. The hygroscopicity of Form B was determined using a symmetric vapor sorption analyzer. The experiment includes an initial drying step at 60° C., followed by measurements of water sorption at 25° C. for percent RH values from 5% to 95% in 10% intervals. The data are reported as percent weight gain as a function of percent RH. Form B was also analyzed for weight percent by liquid chromatography (LCWP) by high performance liquid chromatography (HPLC).

[2] = solid-state form interconversion (variable temperature X-ray, drying); format: physicochemical; details: ambient conditions or drying
From the text: FIG. 5 is an overlay of variable temperature X-ray powder diffraction patterns showing the appearance of the non-isolatable anhydrous Form C of the 2:1 compound I:biphthalate salt.
FIG. 6 is an overlay of X-ray powder diffraction patterns comparing Form B, the dihydrate 2:1 compound I:biphthalate salt, with Form D, the tetrahydrate 2:1 compound I:biphthalate salt. When the wet cake of the 2:1 compound I:biphthalate salt, was air dried at room temperature, Form D was obtained at both T=5 days and T=8-days. The various methods of drying possible, in addition to the size of the sample to be dried, can vary the time needed for drying. The dryness was determined by a stable TG curve showing about a 6% weight loss. Here, the method was to dry in open air, and at both time points (T=5 and T=8 days), the weight loss by TGA was equal to about 6%.
In another embodiment of the invention, anhydrous 2:1 compound I:biphthalate material was non-isolatable at ambient condition, but the hygroscopicity study indicated the presence of one or more hydrated states from 15% to 95% RH. The weight percent of water was 3.4% at 15% RH with a gradual increase to 6.1% at 95%. […] Form D is suspected to be a tetrahydrate biphthalate salt based on its TG data in addition to the hygroscopicity data of Form B. Upon further drying (15 days), the TG and XRD data conform to that of Form B, the dihydrate 2:1 compound I:biphthalate salt.

Row | SMILES | weight percent of water ([1]; at 15% RH) | weight percent of water ([1]; at 95% RH) | solid-state form stability / conversion [2]
1 | CN1C(=O)C(F)=C[C@]2(C)C3CC[C@]4(C)[C@@H](C(=O)NCc5nc6cccnc6[nH]5)CC[C@H]4C3CC[C@@H]12 (some centres unmarked) [Form B] | 3.4% | 6.1% | the most stable form
2 | CN1C(=O)C(F)=C[C@]2(C)C3CC[C@]4(C)[C@@H](C(=O)NCc5nc6cccnc6[nH]5)CC[C@H]4C3CC[C@@H]12 (some centres unmarked) [Form D] | – | – | converts to Form B upon further drying
3 | CN1C(=O)C(F)=C[C@]2(C)C3CC[C@]4(C)[C@@H](C(=O)NCc5nc6cccnc6[nH]5)CC[C@H]4C3CC[C@@H]12 (some centres unmarked) [Form C] | – | – | readily hydrates to Form B in ambient conditions
